Columns and labels:
[1] = system: Pyricularia oryzae; assay: microbe, parasite or virus in culture; assay type: cell-based; conditions: 168 h, read-out: control compared to the untreated check
[2] = system: Alternaria solani; assay: Alternaria solani (early blight of tomato/potato) radial mycelial growth on Potato Dextrose Agar; assay type: cell-based; conditions: 168 h, Potato Dextrose Agar, 25° C., 60% relative humidity, seven days, read-out: control compared to the untreated check
Description: Example 4: Alternaria solani (Early Blight of Tomato/Potato)
(§1) Compounds were dissolved in 0.3% DMSO & then added to Potato Dextrose Agar medium just prior to dispensing it into petri dishes. 5 mL medium with compound in the desired concentration was dispensed into 60 mm sterile petri-plates. After solidification each plate was seeded with 5 mm size mycelial disc taken form periphery of actively growing virulent culture plate. Plates were incubated in growth chambers at 25° C. temperature and 60% relative humidity for seven days and radial growth was measured.

[3] = system: Colletotrichum capsici; assay: Colletotrichum capsici (anthracnose) radial mycelial growth on Potato Dextrose Agar; assay type: cell-based; conditions: Colletotrichum truncatum, 168 h, 25° C., 60% relative humidity, seven days, read-out: control compared to the untreated check
Description: Example 5: Colletotrichum capsici (Anthracnose)
as §1, with “solidification,” for “solidification”

[4] = system: Phakopsora pachyrhizi; assay: Phakopsora pachyrhizi test in soybean, preventive spray; assay type: in vivo; conditions: preventive spray on soybean plants, inoculated one day after treatment, greenhouse 25° C., 90% relative humidity, read-out: control (efficacy, disease severity rating) compared to the untreated check
In short: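 Greenhouse soybean plants were sprayed preventively at the stated rates, with compound in 2% DMSO/acetone diluted in water. They were inoculated one day later with a 2.1×10^6 P. pachyrhizi spore suspension and held at 25° C and 90% RH. Severity (0–100%) was rated 3, 7, 10 and 15 days after application, giving % control versus untreated plants.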

[5] = system: Botrytis cinerea; assay: Botrytis cinerea (gray mold) radial mycelial growth on Potato Dextrose Agar; assay type: cell-based; conditions: 168 h, 22° C., 90% relative humidity, seven days, read-out: control compared to the untreated check
Description: Example 3: Botrytis cinerea (Gray Mold)
as §1, with “solidification,” for “solidification”, “22°” for “25°”, “90%” for “60%”

[6] = system: Septoria lycopersici; assay: Septoria lycopersici (leaf spot of tomato) radial mycelial growth on Potato Dextrose Agar; assay type: cell-based; conditions: 300 ppm, 25° C., 70% relative humidity, seven days
Description: Example 6: Septoria lycopersici (Leaf Spot of Tomato)
as §1, with “solidification,” for “solidification”, “70%” for “60%”

Compound	inhibition of growth at 300 ppm [1] [%]	inhibition of growth at 300 ppm [2] [%]	inhibition of growth at 300 ppm [3] [%]	pest or weed control at 500 ppm [4] [%]	inhibition of growth at 300 ppm [5] [%]	control compared to the untreated check [6]
CS(=O)(=Nc1ccc(-c2noc(C(F)(F)F)n2)cc1)c1ccc(Cl)cc1 (centres unmarked) [Compound 13, (4-chlorophenyl)(methyl)((4-(5-(trifluoromethyl)-1,2,4-oxadiazol-3-yl)phenyl)imino)-λ^6-sulfanone]	> 70	> 70	> 70	–	–	–
CS(=O)(=Nc1ccc(-c2noc(C(F)(F)F)n2)cc1)c1ccncc1 (centres unmarked) [Compound 15, methyl(pyridin-4-yl)((4-(5-(trifluoromethyl)-1,2,4-oxadiazol-3-yl)phenyl)imino)-λ^6-sulfanone]	> 70	> 70	> 70	> 90	> 70	–
CS(=O)(=Nc1ccc(-c2noc(C(F)(F)F)n2)cc1)c1ccc(F)cc1 (centres unmarked) [Compound 17, (4-fluorophenyl)(methyl)((4-(5-(trifluoromethyl)-1,2,4-oxadiazol-3-yl)phenyl)imino)-λ^6-sulfanone]	> 70	> 70	> 70	> 90	> 70	–
CS(=O)(=Nc1ccc(-c2noc(C(F)(F)F)n2)cc1)c1ccccc1 (centres unmarked) [Compound 18, methyl(phenyl)((4-(5-(trifluoromethyl)-1,2,4-oxadiazol-3-yl)phenyl)imino)-λ^6-sulfanone]	> 70	> 70	> 70	> 90	–	–
CS(=O)(=NCc1ccc(-c2noc(C(F)(F)F)n2)cc1)c1ccc(Br)cc1 (centres unmarked) [Compound 22, (4-bromophenyl)(methyl)((4-(5-(trifluoromethyl)-1,2,4-oxadiazol-3-yl)benzyl)imino)-λ^6-sulfanone]	> 70	–	> 70	> 90	–	–
COc1ccc(S(C)(=O)=NCc2ccc(-c3noc(C(F)(F)F)n3)cc2)cc1 (centres unmarked) [Compound 23, (4-methoxyphenyl)(methyl)((4-(5-(trifluoromethyl)-1,2,4-oxadiazol-3-yl)benzyl)imino)-λ^6-sulfanone]	> 70	> 70	> 70	> 90	> 70	–
O=S1(=Nc2ccc(-c3noc(C(F)(F)F)n3)cc2)CCOCC1 [Compound 133, 4-((4-(5-(trifluoromethyl)-1,2,4-oxadiazol-3-yl)phenyl)imino)-1,4λ^6-oxathiane 4-oxide]	> 70	–	> 70	–	> 70	–
O=S1(=Nc2ccc(-c3noc(C(F)(F)F)n3)cc2)CCCCC1 [Compound 134, 1-((4-(5-(trifluoromethyl)-1,2,4-oxadiazol-3-yl)phenyl)imino)hexahydro-1λ^6-thiopyran 1-oxide]	> 70	–	–	–	–	more than 70%
O=C(NS(=O)(=O)c1ccc(Cl)cc1Cl)c1ccc(-c2noc(C(F)(F)F)n2)cc1 [Compound 156, N-((2,4-dichlorophenyl)sulfonyl)-4-(5-(trifluoromethyl)-1,2,4-oxadiazol-3-yl)benzamide]	–	–	> 70	–	> 70	–

Source: patent US11286242B2 (priority 2018, dated 2022)
